Where a name gives a salt, the structure may show the parent alone.

Experimental findings from patent US20160237067A1, “SUBSTITUTED PHENYLALANINE DERIVATIVES” (BAYER PHARMA AKTIENGESELLSCHAFT, priority 2013, published 2016) are described below.

One experiment concerns the target T1, human factor XIa (Homo sapiens, UniProt P03951).
T1 construct: purchased Kordia
Kind of experiment: Measurement of FXIa inhibition (fluorogenic peptide substrate Boc-Glu(OBzl)-Ala-Arg-AMC). The class given is biochemical. The settings on record: factor XIa from Kordia 0.45 nM; 15 min preincubation; 30 min at 22° C. On the procedure: The factor XIa inhibition of the substances according to the invention is determined using a biochemical test system which utilizes the reaction of a peptidic factor XIa substrate to determine the enzymatic activity of human factor XIa. Here, factor XIa cleaves from the peptic factor XIa substrate the C-terminal aminomethylcoumarin (AMC), the fluorescence of which is measured. The determinations are carried out in microtitre plates.
Test substances are dissolved in dimethyl sulphoxide and serially diluted in dimethyl sulphoxide (3000 μM to 0.0078 μM; resulting final concentrations in the test: 50 μM to 0.00013 μM). In each case 1 μl of the diluted substance solutions is placed into the wells of white microtitre plates from Greiner (384 wells). Subsequently, the following are added successively: 20 μl of assay buffer (50 mmol/l Tris buffer pH 7.4; 100 mmol/l sodium chloride; 5 mmol/l calcium chloride; 0.1% bovine serum albumin) and 20 μl of factor XIa from Kordia (0.45 nM in assay buffer). After 15 min of incubation, the enzyme reaction is started by addition of 20 μl of the factor XIa substrate Boc-Glu(OBzl)-Ala-Arg-AMC dissolved in assay buffer (10 μM in assay buffer) from Bachem, the mixture is incubated at room temperature (22° C.) for 30 min and fluorescence is then measured (excitation: 360 nm, emission: 460 nm). The measured emissions of the test batches with test substance are compared to those of control batches without test substance (only dimethyl sulphoxide instead of test substance in dimethyl sulphoxide), and IC50 values are calculated from the concentration/activity relationships.

Another experiment concerns human and animal plasma. Kind of experiment: Determination of anticoagulatory activity: activated partial thromboplastin time (aPTT) in plasma. The class given is biochemical. To be noted: C.K. Prest kit, 37° C., 3 minutes incubation, plasma species of Table B not stated. Here is the method:
The anticoagulatory activity of the test substances is determined in vitro in human and animal plasma (for example mouse, rat, rabbit, pig and dog plasma). To this end, blood is drawn off in a mixing ratio of sodium citrate/blood of 1:9 using a 0.11 molar sodium citrate solution as receiver. Immediately after the blood has been drawn off, it is mixed thoroughly and centrifuged at about 4000 g for 15 minutes. The supernatant is pipetted off.
The activated partial thromboplastin time (aPTT) is determined in the presence of varying concentrations of test substance or the corresponding solvent using a commercial test kit (C.K. Prest from Diagnostica Stago). The test compounds are incubated with the plasma and the PTT reagent (cephalin, kaolin) at 37° C. for 3 minutes. Coagulation is then started by addition of a 25 mM aqueous calcium chloride solution, and the time when coagulation occurs is determined. The concentration of test substance which brings about a 1.5-fold extension of the aPTT is determined Activity data from this test are listed in Table B below: […]

T1 sequence (P03951 388-625 limits assumed): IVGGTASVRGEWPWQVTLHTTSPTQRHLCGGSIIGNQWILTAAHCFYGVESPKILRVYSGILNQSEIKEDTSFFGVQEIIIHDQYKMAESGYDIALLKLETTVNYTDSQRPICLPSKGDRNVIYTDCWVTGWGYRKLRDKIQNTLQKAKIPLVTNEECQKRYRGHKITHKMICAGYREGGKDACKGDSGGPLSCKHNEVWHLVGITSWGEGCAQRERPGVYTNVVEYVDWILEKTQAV
T1 sequence (P03951 19-387 partner limits assumed): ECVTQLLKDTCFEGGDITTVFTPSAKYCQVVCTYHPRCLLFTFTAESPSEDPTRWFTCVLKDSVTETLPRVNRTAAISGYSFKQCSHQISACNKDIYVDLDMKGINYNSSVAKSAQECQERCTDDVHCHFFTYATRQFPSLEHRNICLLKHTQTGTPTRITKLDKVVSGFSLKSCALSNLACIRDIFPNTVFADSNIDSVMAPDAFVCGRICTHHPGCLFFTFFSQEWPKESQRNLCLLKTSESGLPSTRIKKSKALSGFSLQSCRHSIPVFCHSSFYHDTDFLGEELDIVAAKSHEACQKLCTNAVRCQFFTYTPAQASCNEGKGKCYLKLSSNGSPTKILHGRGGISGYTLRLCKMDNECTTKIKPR

As for `CCc1ccc(C(=O)NCCN(CC)CC)cc1-c1ccc(C[C@H](NC(=O)[C@H]2CC[C@H](CN)CC2)C(=O)Nc2ccc(-c3nn[nH]n3)cc2)cc1` [Example 23, 4′-[(2S)-2-({[trans-4-(Aminomethyl)cyclohexyl]carbonyl}amino)-3-oxo-3-{[4-(2H-tetrazol-5-yl)phenyl]amino}propyl]-N-[2-(diethylamino)ethyl]-6-ethylbiphenyl-3-carboxamide hydrochloride], at human factor XIa, the IC50 worked out at 13 nM. For the same compound, in the experiment on human and animal plasma, the “aPTT (concentration of test substance which brings about a 1.5-fold extension of the aPTT)” value came to 0.36 µmol/L.
Regarding `NC[C@H]1CC[C@H](C(=O)N[C@@H](Cc2ccc(-c3cccc(C(=O)NCCN4CCOCC4)c3)cc2)C(=O)Nc2ccc(-c3nnn[nH]3)cc2)CC1` [Example 27, 4′-[(2S)-2-({[trans-4-(Aminomethyl)cyclohexyl]carbonyl}amino)-3-oxo-3-{[4-(1H-tetrazol-5-yl)phenyl]amino}propyl]-N-[2-(morpholin-4-yl)ethyl]biphenyl-3-carboxamide hydrochloride], the IC50 against human factor XIa was determined as 6 nM. Besides, in the experiment on human and animal plasma, the “aPTT (concentration of test substance which brings about a 1.5-fold extension of the aPTT)” value came to 0.19 µmol/L.
For `Cc1ccc(C(=O)N2CCOCC2)cc1-c1ccc(C[C@H](NC(=O)[C@H]2CC[C@H](CN)CC2)C(=O)Nc2ccc(-c3nn[nH]n3)cc2)cc1` [Example 33, trans-4-(Aminomethyl)-N-[(2S)-3-[2′-methyl-5′-(morpholin-4-ylcarbonyl)biphenyl-4-yl]-1-oxo-1-{[4-(2H-tetrazol-5-yl)phenyl]amino}propan-2-yl]cyclohexanecarboxamide hydrochloride] the same measures were 5.4 nM and 0.18 µmol/L.
For `NC[C@H]1CC[C@H](C(=O)N[C@@H](Cc2ccc(-c3cccc(C(=O)N[C@@H]4CCNC4)c3F)cc2)C(=O)Nc2ccc(-c3nn[nH]n3)cc2)CC1` [Example 17, 4′-[(2S)-2-({[trans-4-(Aminomethyl)cyclohexyl]carbonyl}amino)-3-oxo-3-{[4-(2H-tetrazol-5-yl)phenyl]amino}propyl]-2-fluoro-N-[(3R)-pyrrolidin-3-yl]biphenyl-3-carboxamide hydrochloride] the same measures were 9.3 nM and 0.58 µmol/L.
Taken in the same sequence, the figures for `CCOC(=O)c1cccc(-c2ccc(C[C@H](NC(=O)[C@H]3CC[C@H](CN)CC3)C(=O)Nc3ccc(-c4nn[nH]n4)cc3)cc2)c1F` [Example 8, Ethyl 4′-[(2S)-2-({[trans-4-(aminomethyl)cyclohexyl]carbonyl}amino)-3-oxo-3-{[4-(2H-tetrazol-5-yl)phenyl]amino}propyl]-2-fluorobiphenyl-3-carboxylate hydrochloride] were 6.9 nM and 0.51 µmol/L.
In the case of `Cc1cc(C(=O)NC2CCNCC2)cc(-c2ccc(C[C@H](NC(=O)[C@H]3CC[C@H](CN)CC3)C(=O)Nc3ccc(-c4nn[nH]n4)cc3)cc2)c1` [Example 40, 4′-[(2S)-2-({[trans-4-(Aminomethyl)cyclohexyl]carbonyl}amino)-3-oxo-3-{[4-(2H-tetrazol-5-yl)phenyl]amino}propyl]-5-methyl-N-(piperidin-4-yl)biphenyl-3-carboxamide hydrochloride], inhibition against human factor XIa was half-maximal at 4.1 nM (IC50). The “aPTT (concentration of test substance which brings about a 1.5-fold extension of the aPTT)” value in the experiment on human and animal plasma was determined as 0.06 µmol/L.
Regarding `Cc1ccc(-c2ccc(C[C@H](NC(=O)[C@H]3CC[C@H](CN)CC3)C(=O)Nc3ccc(-c4nn[nH]n4)cc3)cc2)cc1C(=O)N1CCOCC1` [Example 38, trans-4-(Aminomethyl)-N-[(2S)-3-[4′-methyl-3′-(morpholin-4-ylcarbonyl)biphenyl-4-yl]-1-oxo-1-{[4-(2H-tetrazol-5-yl)phenyl]amino}propan-2-yl]cyclohexanecarboxamide hydrochloride], the IC50 against human factor XIa amounted to 4.1 nM. The “aPTT (concentration of test substance which brings about a 1.5-fold extension of the aPTT)” value in the experiment on human and animal plasma amounted to 0.22 µmol/L.
Consider `CNC(=O)c1ccc(C)c(-c2ccc(C[C@H](NC(=O)[C@H]3CC[C@H](CN)CC3)C(=O)Nc3ccc(-c4nnc(C(F)(F)C(F)(F)C(=O)O)[nH]4)cc3)cc2)c1` [Example 41, 3-{5-[4-({(2S)-2-({[trans-4-(Aminomethyl)cyclohexyl]carbonyl}amino)-3-[2′-methyl-5′-(methylcarbamoyl)biphenyl-4-yl]propanoyl}amino)phenyl]-4H-1,2,4-triazol-3-yl}-2,2,3,3-tetrafluoropropanoic acid hydrochloride], for which the IC50 against human factor XIa stood at 2.8 nM.
`Cc1cc(C(=O)NC2CCN(C)CC2)cc(-c2ccc(C[C@H](NC(=O)[C@H]3CC[C@H](CN)CC3)C(=O)Nc3ccc(-c4nn[nH]n4)cc3)cc2)c1C` [Example 34, 4′-[(2S)-2-({[trans-4-(Aminomethyl)cyclohexyl]carbonyl}amino)-3-oxo-3-{[4-(2H-tetrazol-5-yl)phenyl]amino}propyl]-5,6-dimethyl-N-(1-methylpiperidin-4-yl)biphenyl-3-carboxamide hydrochloride]: the IC50 against human factor XIa is 4.1 nM. For the same compound, the “aPTT (concentration of test substance which brings about a 1.5-fold extension of the aPTT)” value in the experiment on human and animal plasma was 0.06 µmol/L.
For `Cc1ccc(S(=O)(=O)N2CCOCC2)cc1-c1ccc(C[C@H](NC(=O)[C@H]2CC[C@H](CN)CC2)C(=O)Nc2ccc3[nH]c(=O)[nH]c3c2)cc1` [Example 26, trans-4-(Aminomethyl)-N-{(2S)-3-[2′-methyl-5′-(morpholin-4-ylsulphonyl)biphenyl-4-yl]-1-oxo-1-[(2-oxo-2,3-dihydro-1H-benzimidazol-5-yl)amino]propan-2-yl}cyclohexanecarboxamide hydrochloride] the same measures were 6.1 nM and 0.18 µmol/L.
For `NC[C@H]1CC[C@H](C(=O)N[C@@H](Cc2ccc(-c3cccc(C(=O)NC4CCNCC4)c3F)cc2)C(=O)Nc2ccc(-c3nn[nH]n3)cc2)CC1` [Example 15, 4′-[(2S)-2-({[trans-4-(Aminomethyl)cyclohexyl]carbonyl}amino)-3-oxo-3-{[4-(2H-tetrazol-5-yl)phenyl]amino}propyl]-2-fluoro-N-(piperidin-4-yl)biphenyl-3-carboxamide hydrochloride] the same measures were 10 nM and 0.52 µmol/L.
Taken in the same sequence, the figures for `COc1ccc(-c2ccc(C[C@H](NC(=O)[C@H]3CC[C@H](CN)CC3)C(=O)Nc3ccc(-c4nnn[nH]4)cc3)cc2)cc1S(=O)(=O)N1CCOCC1` [Example 24, trans-4-(Aminomethyl)-N-[(2S)-3-[4′-methoxy-3′-(morpholin-4-ylsulphonyl)biphenyl-4-yl]-1-oxo-1-{[4-(1H-tetrazol-5-yl)phenyl]amino}propan-2-yl]cyclohexanecarboxamide hydrochloride] were 2 nM and 0.09 µmol/L.
Compound `CCN(CC)CCNC(=O)c1cccc(-c2ccc(C[C@H](NC(=O)[C@H]3CC[C@H](CN)CC3)C(=O)Nc3ccc(-c4nn[nH]n4)cc3)cc2)c1F` [Example 16, 4′-[(2S)-2-({[trans-4-(Aminomethyl)cyclohexyl]carbonyl}amino)-3-oxo-3-{[4-(2H-tetrazol-5-yl)phenyl]amino}propyl]-N-[2-(diethylamino)ethyl]-2-fluorobiphenyl-3-carboxamide hydrochloride] yielded an IC50 against human factor XIa of 9 nM. Further, the “aPTT (concentration of test substance which brings about a 1.5-fold extension of the aPTT)” value with human and animal plasma was found to be 0.2 µmol/L.
With `NC[C@H]1CC[C@H](C(=O)N[C@@H](Cc2ccc(-c3cccc(C(=O)N4CCOCC4)c3)cc2)C(=O)Nc2ccc(-c3nn[nH]n3)cc2)CC1` [Example 20, trans-4-(Aminomethyl)-N-[(2S)-3-[3′-(morpholin-4-ylcarbonyl)biphenyl-4-yl]-1-oxo-1-{[4-(2H-tetrazol-5-yl)phenyl]amino}propan-2-yl]cyclohexanecarboxamide hydrochloride], on human factor XIa, 2.7 nM corresponded to half-maximal inhibition (IC50). The “aPTT (concentration of test substance which brings about a 1.5-fold extension of the aPTT)” value in the experiment on human and animal plasma amounted to 0.39 µmol/L.
`Cc1cc(C)c(-c2ccc(C[C@H](NC(=O)[C@H]3CC[C@H](CN)CC3)C(=O)Nc3ccc(-c4nn[nH]n4)cc3)cc2)cc1C(=O)N(C)C` [Example 39, 4′-[(2S)-2-({[trans-4-(Aminomethyl)cyclohexyl]carbonyl}amino)-3-oxo-3-{[4-(2H-tetrazol-5-yl)phenyl]amino}propyl]-N,N,4,6-tetramethylbiphenyl-3-carboxamide hydrochloride] yielded an IC50 at human factor XIa of 3.3 nM.
